The subject of one series is RBV uptake. Type of series: cell-based.
Series [1] deals with VSV-GFP or SeV-GFP. The series is classed as cell-based, vesicular stomatitis virus; Sendai virus.
The test system of series [2] is VSV-GFP. The experiment in a line: microbe, parasite or virus in culture. Type of series: cell-based. The note with it: Vesicular stomatitis virus; for IC50: read-out: IC50 VSV-GFP; for IC90: read-out: IC90 VSV-GFP.
Series [3] deals with SeV-GFP. Description: microbe, parasite or virus in culture. Type of series: cell-based, Sendai virus. The note with it: Respirovirus muris; for IC50: read-out: IC50 SeV-GFP; for IC90: read-out: IC90 SeV-GFP.
The test system of series [4] is VSV-GFP. The series is classed as cell-based, vesicular stomatitis virus.
Series [5] deals with SeV-GFP. Type of series: cell-based, Sendai virus.
The subject of series [6] is BHK21, BSRT7, HeLa, A549, 4T1, HEp2 and Vero cells.
In the next series the test system is canine distemper virus. The note with it: Vero cells; cited from earlier work.
For series [7], the system named is BHK21, BSRT7, HeLa, A549, 4T1, HEp2 and Vero cells. The experiment in a line: Cell viability assays (MTT, CellTiter-Glo, trypan blue dye exclusion). The note with it: RBV up to 1000 µM, 24 h, all seven cell lines. Background: In ATP-based viability assays light output follows the ATP content of the culture.
Series [8] relates to VSV-GFP or SeV-GFP. The series is classed as cell-based, vesicular stomatitis virus; Sendai virus. This is another data set of the same source.
For series [9], the system named is Vero, HepG2, MDCK and other cell lines. The note with it: cited from earlier work.

Each structure is given as a SMILES string. “Also recorded” adds a separate entry of the source. Like-named read-outs stand apart in the source and are kept apart here. Starred links: 1 amine or outer side, 2 acyl side, 3 side chain; linkers in the order of their positions; H or OH if unused. Positions of bridges follow the written chain, without caps; N, C: chain ends. Non-standard residues stand in square brackets, D forms with d. Residues, ends and D or L forms follow the SMILES beside them. Chains are numbered I, II in the order given. Actinocin(9to1) = Cc1c2oc3c(C)ccc(C(=O)[*:1])c3nc-2c(C(=O)[*:2])c(N)c1=O; NMeV = CN[C@H](C(=O)O)C(C)C; Sar = CNCC(=O)O

Take `Cc1c2oc3c(C)ccc(C(=O)N[C@@H]4C(=O)N[C@H](C(C)C)C(=O)N5CCC[C@H]5C(=O)N(C)CC(=O)N(C)[C@@H](C(C)C)C(=O)O[C@@H]4C)c3nc-2c(C(=O)N[C@@H]2C(=O)N[C@H](C(C)C)C(=O)N3CCC[C@H]3C(=O)N(C)CC(=O)N(C)[C@@H](C(C)C)C(=O)O[C@@H]2C)c(N)c1=O` [ActD, actinomycin D] (I: T[dV]P[Sar][NMeV] / II: T[dV]P[Sar][NMeV]; ester I:1-I:C, II:1-II:C; linker I:N-II:N via Actinocin(9to1)): the “Effect on RBV uptake” value in the series with RBV uptake is “did not inhibit RBV uptake”. Moreover, in the series with VSV-GFP or SeV-GFP [1], the “Effect on viral replication when used alone” value is recorded as “somewhat mild effect on viral replication” and the “Neutralizing effect on antiviral activity of RBV” value is “clear neutralizing effect on RBV”.
Turning to `O=[N+]([O-])c1ccc(CSc2ncnc3c2ncn3[C@@H]2O[C@H](CO)[C@@H](O)[C@H]2O)cc1` [NBMPR, S-(4-Nitrobenzyl)-6-thioinosine], in the series on RBV uptake, the “Effect on RBV uptake” value is “RBV uptake was inhibited in most cell lines”.
Broadly, the IC50 is the point on the concentration scale where inhibition reaches its midpoint. By IC90 is commonly meant the concentration needed for an effect of 90%. As a reminder, the IC80 is the point of the concentration-response curve where the effect stands at 80%. `NC(=O)c1ncn([C@@H]2O[C@H](CO)[C@@H](O)[C@H]2O)n1` [RBV, 1-ß-D-ribofuranosyl-1,2,4-triazole-3-carboxamide]: the IC50 with VSV-GFP [2] (4T1, 24 h) amounted to 20 µM; in the series with VSV-GFP [2] (A549, 24 h), 190 µM; in the series with VSV-GFP [2] (BHK-21, 24 h), 275 µM; with VSV-GFP [2] (BSR-T7, 24 h), 10 µM; in the series on VSV-GFP [2] (HEp-2, 24 h), 70 µM; in the series on VSV-GFP [2] (HeLa, 24 h) it was 70 µM. Further, the IC50 was 2250 µM in the series on VSV-GFP [2] (Vero, 24 h); 10 µM with SeV-GFP [3] (4T1, 48 h); 90 µM with SeV-GFP [3] (A549, 48 h); 190 µM in the series on SeV-GFP [3] (BHK-21, 48 h); 16 µM in the series with SeV-GFP [3] (BSR-T7, 48 h); 12 µM in the series with SeV-GFP [3] (HEp-2, 48 h). Besides, the IC50 in the series with SeV-GFP [3] (HeLa, 48 h) is 40 µM; in the series with SeV-GFP [3] (Vero, 48 h), 1550 µM; with canine distemper virus it was 20 to 50 µM. The concentration for an effect of 90% (IC90) stood at 60 µM with VSV-GFP [2] (4T1, 24 h); 610 µM with VSV-GFP [2] (A549, 24 h); 1100 µM in the series with VSV-GFP [2] (BHK-21, 24 h); 40 µM in the series with VSV-GFP [2] (BSR-T7, 24 h); 310 µM with VSV-GFP [2] (HEp-2, 24 h); 150 µM with VSV-GFP [2] (HeLa, 24 h). The IC90 in the series on VSV-GFP [2] (Vero, 24 h) was above 3000 µM; in the series on SeV-GFP [3] (4T1, 48 h) it was 18 µM; in the series with SeV-GFP [3] (A549, 48 h), 320 µM; in the series on SeV-GFP [3] (BHK-21, 48 h), 850 µM; with SeV-GFP [3] (BSR-T7, 48 h) it was 40 µM; in the series with SeV-GFP [3] (HEp-2, 48 h), 45 µM. Also, the concentration for an effect of 90% (IC90) was 110 µM in the series with SeV-GFP [3] (HeLa, 48 h) and above 3000 µM with SeV-GFP [3] (Vero, 48 h). Further, the “Effect on VSV replication (GFP expression)” value in the series with VSV-GFP [4] is “effectively inhibited VSV”. Moreover, the “Effect on VSV-driven GFP expression” value in the series on VSV-GFP [4] is on record as “surprisingly mild effect; also recorded: somewhat intermediate effect”. In addition, the “Effect on SeV replication compared with VSV” value in the series with SeV-GFP [5] is on record as “inhibited SeV replication to a greater degree than VSV”. Moreover, in [6], the “Long-term accumulation of RBV” value is “markedly decreased levels of RBV accumulation”. In addition, in [6], the “Short-term RBV uptake” value is “somewhat similar levels of RBV import”. In addition, the IC80 in the series on canine distemper virus is 40 to 110 µM. In series [7], the “Effect on cell viability (cellular toxicity)” value is listed as “did not produce any statistically significant decrease in cell viability; also recorded: did not produce any significant cytotoxicity”.
Turning to `Nc1nc2c(ncn2[C@@H]2O[C@H](CO)[C@@H](O)[C@H]2O)c(=O)[nH]1` [guanosine], in the series on VSV-GFP or SeV-GFP [8], the “Effect on virus replication when used alone” value was “no significant effect on virus replication” and the “Neutralizing effect on antiviral activity of RBV” value is recorded as “clear (almost 100%) neutralizing effect on RBV”. Also, the “Excess of physiological GTP levels” value in series [9] is “at least 4 fold”.

The values are drawn from paper PMC2889835 (PLoS ONE, 2010).
